Test results from patent US12257287B2, “Glucagon-derived peptide and use thereof” (Tianjin Institute of Pharmaceutical Research Co., Ltd., priority 2018, dated 2025).
Marks after values point to notes of the source that are not given here. Numbered stars: 1 amine (or outer) side, 2 acyl side, 3 side chain; on linkers, the order of the positions; unused ones are H or OH. Square brackets hold non-standard residues; d marks the D form. Side chains are listed from the residue outwards. Peptide text beside a SMILES is read from it. * marks the point of attachment. C20 diacid = O=C(O)CCCCCCCCCCCCCCCCCCC(=O)*; C18 diacid = O=C(O)CCCCCCCCCCCCCCCCC(=O)*; γGlu = O=C(O)[C@H](CCC(=O)[*:2])N[*:1]; AEEA = NCCOCCOCC(=O)O; Aib = CC(C)(N)C(=O)O

Legend:
human GLP-1 receptor = target: T1, human GLP-1 receptor (Homo sapiens, UniProt P43220); assay: GLP-1 receptor mediated cAMP production in vitro; format: cell-based; details: cells transfected with human GLP-1 receptor, 20 min at 37° C., read-out: GLP-1R (nM EC50)
T1 construct: expressed in transfected cells; host or cells: Chinese guinea pig lung cells [sic]
T1 sequence (P43220 24-463): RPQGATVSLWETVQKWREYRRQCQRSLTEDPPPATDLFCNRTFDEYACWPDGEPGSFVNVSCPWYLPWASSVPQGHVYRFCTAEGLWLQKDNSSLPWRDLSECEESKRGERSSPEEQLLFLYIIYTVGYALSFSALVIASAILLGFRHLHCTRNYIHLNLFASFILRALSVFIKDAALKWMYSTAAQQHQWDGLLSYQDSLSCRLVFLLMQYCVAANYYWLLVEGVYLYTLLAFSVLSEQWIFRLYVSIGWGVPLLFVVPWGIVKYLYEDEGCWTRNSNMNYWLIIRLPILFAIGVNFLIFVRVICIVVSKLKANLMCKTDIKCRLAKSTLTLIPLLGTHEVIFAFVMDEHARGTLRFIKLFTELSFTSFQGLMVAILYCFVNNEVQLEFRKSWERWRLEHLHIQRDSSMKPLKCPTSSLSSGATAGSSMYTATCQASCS
Description: (§1) The medium was removed, the cells were lysed, and cAMP values were detected referring to the detection method described for the assay kit.

GC receptor = target: T2, GC receptor (Homo sapiens, UniProt P47871); assay: GC receptor mediated cAMP production in vitro (HEK293 cells transfected with GC receptor); format: cell-based; details: 20 min at 37° C., read-out: GCGR (nM EC50)
T2 construct: expressed in transfected cells; host or cells: HEK293 cells
T2 sequence (P47871 26-477): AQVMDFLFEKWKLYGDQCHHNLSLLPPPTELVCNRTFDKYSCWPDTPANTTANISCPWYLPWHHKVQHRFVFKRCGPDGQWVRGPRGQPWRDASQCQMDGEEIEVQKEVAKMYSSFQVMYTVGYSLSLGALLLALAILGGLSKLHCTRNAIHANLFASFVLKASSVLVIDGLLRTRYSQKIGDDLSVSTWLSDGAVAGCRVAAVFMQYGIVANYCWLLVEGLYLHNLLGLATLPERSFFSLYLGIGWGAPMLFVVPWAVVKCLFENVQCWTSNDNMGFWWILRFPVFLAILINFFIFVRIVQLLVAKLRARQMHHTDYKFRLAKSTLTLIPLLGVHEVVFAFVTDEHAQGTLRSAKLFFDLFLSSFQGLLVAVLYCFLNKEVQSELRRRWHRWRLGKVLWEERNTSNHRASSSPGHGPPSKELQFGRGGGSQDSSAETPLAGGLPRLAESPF
Description: as §1

[1] = Short-term administration: food intake and body weight in DIO mice; format: in vivo; details: 30 nmol/kg once every 24 h, twice, − decrease; for Rate of change in food intake (%): at 48 hours vs day before administration; for Body weight change: at 48 hours
Procedure: Method: diet-induced obese mice (DIO) with an average body weight of 52.5 g were divided into model control and test groups, 5 mice in each group. The test samples were dissolved in 10 mM PBS of pH7.4, injected once every 24 h at a dose of 30 nmol/kg, and administered twice. The model group was injected with solvent. Changes in food intake and body weight at 48 hours were measured, and the change rates were calculated compared to the day before administration.

[2] = Effect on body weight of DIO mice after 14 days' administration; format: in vivo, C57BL/6J mice; details: DIO mice, subcutaneous injection every day for 14 days; (initial−last)/initial; positive values indicate a decrease
Description: C57BL/6J mice (n=35), model group (n=30) were fed with H10060 high-fat diet to induce obesity (DIO), blank control group (n=5) were fed with standard diet, both for 34 weeks. One day before the first administration, the model group was randomly divided into groups according to their body weight (average body weight range 45.0-52.0 g), with 5 mice in each group, which respectively were model control group, positive control group (semaglutide), and test sample group (1 #-4 # are compound 1, compound 4, compound 6 and compound 22, respectively). The blank control group and model control group were given saline subcutaneously every day, while the positive control group and test sample group were administrated by subcutaneous injection every day for 14 days. The body weight of the animals was weighed and recorded every day, and the change rate of body weight (%) was calculated by comparing the body weight at the last administration day with the initial body weight. (initial body weight−last body weight)/initial body weight=body weight change rate (%). Calculation formula: […]
Calculated positive values indicate a decrease and negative values indicate an increase.
(§2) Methods are the same as that in Example 3, the test results of effects on body weight are shown in Table 5, and the effects on blood glucose are shown in Table 6. In the table, 5 #-9 # are compound 27, compound 35, compound 54, compound 57, and compound 66, respectively.

[3] = Glucose tolerance test in glucose-loaded DIO mice; format: in vivo; details: for AUC of blood glucose, Table 4: DIO mice fasted 16 h, glucose 1 g/kg i.p. 1 h after s.c. administration, 0.5, 1, 1.5 h; for AUC reduction rate (%), Table 4: blood glucose inhibition rate compared with model control group, DIO mice, glucose 1 g/kg i.p.
Procedure: DIO mice fasted for 16 h, and 1 h after administration by subcutaneous injection, glucose solution (1 g/kg) was given intraperitoneally for glucose tolerance test. Blood glucose values were measured at 0.5, 1 and 1.5 h after glucose administration. The area under the blood glucose concentration curve (AUC) was calculated and compared with that of the model control group, and the blood glucose inhibition rate (%) was calculated.
as §2

physchem = format: physicochemical; details: pH 7.5, Solubility
[4] = Accelerated chemical stability in injection solvent system (HPLC-UV); format: physicochemical; details: 14 days, phosphate buffer pH 7.3 with Tween 80 and phenol, main peak area vs day 0
Procedure: The chemical stability of the compounds of the present invention in injection solution systems was evaluated by an accelerated stability test. Methods: an appropriate amount of compound of Example 1 was weighed, and dissolved in 10 mM pH8.5 sodium hydrogen phosphate buffer. The final pH value of the solution was adjusted to 7.3 with 0.1 N hydrochloric acid, and proper amounts of Tween 80 and phenol were added. The mixture was placed at 10° C. and 37° C. for 14 days, and detected by HPLC-UV. The main peak area was obtained by peak area normalization method, and the changes compared with day 0 were investigated. The HPLC detection method was the same as that in Example 6, and the mobile phase gradient was appropriately adjusted according to the situation of chromatographic peak separation.
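Throughout, for Solubility: compound added at 2 mg per mL of phosphate buffer, with the dissolved amount determined in the supernatant.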

EC50 (human GLP-1 receptor) [nM]	EC50 (GC receptor) [nM]	solubility (physchem; pH 7.5, 10 mM phosphate buffer) [µg/mL]	solubility (physchem; pH 7.5, 20 mM phosphate buffer) [µg/mL]	Change in purity % (10° C.) [4] [%]	Change in purity % (37° C.) [4] [%]	Structure (SMILES)	Rate of change in food intake (%) [1] [%]	Body weight change [1] [g]	body weight change rate, Table 3 [2] [%]	AUC of blood glucose, Table 4 [3] [mmol·h/L]	AUC reduction rate (%), Table 4 [3]
0.291	0.076					CC[C@H](C)[C@H](NC(=O)[C@H](Cc1ccccc1)NC(=O)[C@H](CCC(=O)O)NC(=O)[C@H](CCCCN)NC(=O)[C@H](C)NC(=O)[C@H](C)NC(=O)[C@H](CCCNC(=N)N)NC(=O)[C@H](CCC(=O)O)NC(=O)[C@H](CC(=O)O)NC(=O)[C@H](CC(C)C)NC(=O)[C@H](Cc1ccc(O)cc1)NC(=O)[C@H](CCCCN)NC(=O)[C@H](CO)NC(=O)[C@H](CCCCNC(=O)COCCOCCNC(=O)COCCOCCNC(=O)CC[C@H](NC(=O)CCCCCCCCCCCCCCCCCCC(=O)O)C(=O)O)NC(=O)[C@H](CC(=O)O)NC(=O)[C@H](CO)NC(=O)[C@@H](NC(=O)[C@H](Cc1ccccc1)NC(=O)[C@@H](NC(=O)CNC(=O)[C@H](CCC(N)=O)NC(=O)C(C)(C)NC(=O)[C@@H](N)Cc1c[nH]cn1)[C@@H](C)O)[C@@H](C)O)C(=O)N[C@@H](C)C(=O)N[C@@H](Cc1c[nH]c2ccccc12)C(=O)N[C@@H](CC(C)C)C(=O)N[C@@H](CCC(=O)O)C(=O)N[C@@H](C)C(=O)NCC(=O)NCC(=O)N1CCC[C@H]1C(=O)N[C@@H](CO)C(=O)N[C@@H](CO)C(=O)NCC(N)=O [Compound 77] (H-H[Aib]QGTFTSDK([AEEA-AEEA-γGlu-C20 diacid])SKYLDERAAKEFIAWLEAGGPSSG-NH2; N-terminus assumed)	−51	-2.9			
0.219	0.0352	> 2000	> 2000			CCCCCCCCCCCCCCCC(=O)N[C@@H](CCC(=O)N[C@@H](CCC(=O)NCCCC[C@H](NC(=O)[C@H](CC(=O)O)NC(=O)[C@H](CO)NC(=O)[C@@H](NC(=O)[C@H](Cc1ccccc1)NC(=O)[C@@H](NC(=O)CNC(=O)[C@H](CCC(N)=O)NC(=O)C(C)(C)NC(=O)[C@@H](N)Cc1c[nH]cn1)[C@@H](C)O)[C@@H](C)O)C(=O)N[C@@H](CO)C(=O)N[C@@H](CCCCN)C(=O)N[C@@H](Cc1ccc(O)cc1)C(=O)N[C@@H](CC(C)C)C(=O)N[C@@H](CCC(=O)O)C(=O)N[C@@H](CCC(=O)O)C(=O)N[C@@H](CCCNC(=N)N)C(=O)N[C@@H](C)C(=O)N[C@@H](C)C(=O)N[C@@H](CCCCN)C(=O)N[C@@H](CCC(=O)O)C(=O)N[C@@H](Cc1ccccc1)C(=O)N[C@H](C(=O)N[C@@H](CCC(=O)O)C(=O)N[C@@H](Cc1c[nH]c2ccccc12)C(=O)N[C@@H](CC(C)C)C(=O)N[C@@H](CCC(=O)O)C(=O)N[C@@H](C)C(=O)NCC(=O)NCC(=O)N1CCC[C@H]1C(=O)N[C@@H](CO)C(=O)N[C@@H](CO)C(=O)NCC(N)=O)C(C)C)C(=O)O)C(=O)O [Compound 2] (HELM PEPTIDE1{H.[Aib].Q.G.T.F.T.S.D.K.S.K.Y.L.E.E.R.A.A.K.E.F.V.E.W.L.E.A.G.G.P.S.S.G.[am]}|PEPTIDE2{[CCCCCCCCCCCCCCCC(=O)[*:2]].[gGlu].[gGlu]}$PEPTIDE1,PEPTIDE2,10:R3-3:R2$$$V2.0; N-terminus assumed)			22.0	8.06 ± 2.06	61.9** %
0.141	0.087	> 2000	> 2000	−1.9	−4.5	CC[C@H](C)[C@H](NC(=O)[C@H](Cc1ccccc1)NC(=O)[C@H](CCC(=O)O)NC(=O)[C@H](CCCCN)NC(=O)[C@H](C)NC(=O)[C@H](C)NC(=O)[C@H](CCCNC(=N)N)NC(=O)[C@H](CCC(=O)O)NC(=O)[C@H](CC(=O)O)NC(=O)[C@H](CC(C)C)NC(=O)[C@H](Cc1ccc(O)cc1)NC(=O)[C@H](CCCCN)NC(=O)[C@H](CO)NC(=O)[C@H](CCCCNC(=O)COCCOCCNC(=O)COCCOCCNC(=O)CC[C@H](NC(=O)CCCCCCCCCCCCCCCCC(=O)O)C(=O)O)NC(=O)[C@H](CC(=O)O)NC(=O)[C@H](CO)NC(=O)[C@@H](NC(=O)[C@H](Cc1ccccc1)NC(=O)[C@@H](NC(=O)CNC(=O)[C@H](CCC(N)=O)NC(=O)C(C)(C)NC(=O)[C@@H](N)Cc1c[nH]cn1)[C@@H](C)O)[C@@H](C)O)C(=O)N[C@@H](C)C(=O)N[C@@H](Cc1c[nH]c2ccccc12)C(=O)N[C@@H](CC(C)C)C(=O)N[C@@H](CCC(=O)O)C(=O)NCC(=O)NCC(=O)N1CCC[C@H]1C(=O)N[C@@H](CO)C(=O)N[C@@H](CO)C(=O)NCC(N)=O [Compound 75] (H-H[Aib]QGTFTSDK([AEEA-AEEA-γGlu-C18 diacid])SKYLDERAAKEFIAWLEGGPSSG-NH2; N-terminus assumed)	−60	-2.4			
	0.0574	> 2000	> 2000	−1.4	−5.2	CCCCCCCCCCCCCCCC(=O)N[C@@H](CCC(=O)N[C@@H](CCC(=O)NCCCC[C@H](NC(=O)[C@H](CC(=O)O)NC(=O)[C@H](CO)NC(=O)[C@@H](NC(=O)[C@H](Cc1ccccc1)NC(=O)[C@@H](NC(=O)CNC(=O)[C@H](CCC(N)=O)NC(=O)C(C)(C)NC(=O)[C@@H](N)Cc1c[nH]cn1)[C@@H](C)O)[C@@H](C)O)C(=O)N[C@@H](CO)C(=O)N[C@@H](CCCCN)C(=O)N[C@@H](Cc1ccc(O)cc1)C(=O)N[C@@H](CC(C)C)C(=O)N[C@@H](CCC(=O)O)C(=O)N[C@@H](CCC(=O)O)C(=O)N[C@@H](CCCNC(=N)N)C(=O)N[C@@H](C)C(=O)N[C@@H](C)C(=O)N[C@@H](CCCCN)C(=O)N[C@@H](CCC(=O)O)C(=O)N[C@@H](Cc1ccccc1)C(=O)N[C@H](C(=O)N[C@@H](C)C(=O)N[C@@H](Cc1c[nH]c2ccccc12)C(=O)N[C@@H](CC(C)C)C(=O)N[C@@H](CCC(=O)O)C(=O)N[C@@H](C)C(=O)NCC(=O)NCC(=O)N1CCC[C@H]1C(=O)N[C@@H](CO)C(=O)N[C@@H](CO)C(=O)NCC(N)=O)[C@@H](C)CC)C(=O)O)C(=O)O [Compound 1] (HELM PEPTIDE1{H.[Aib].Q.G.T.F.T.S.D.K.S.K.Y.L.E.E.R.A.A.K.E.F.I.A.W.L.E.A.G.G.P.S.S.G.[am]}|PEPTIDE2{[CCCCCCCCCCCCCCCC(=O)[*:2]].[gGlu].[gGlu]}$PEPTIDE1,PEPTIDE2,10:R3-3:R2$$$V2.0; N-terminus assumed)	−58	-2.8	28.3	7.24 ± 1.33	65.8** %
